{"source": "patent EP1073435B1", "about": "“SUBSTITUTED TRICYCLIC PYRAZOLE DERIVATIVES WITH PROTEIN KINASE ACTIVITY” (Abbott GmbH & Co. KG, priority 1998, dated 1999)", "type_in_all_cases": "biochemical", "key": {"KDR tyrosine kinase": {"target": "T1, KDR tyrosine kinase (Homo sapiens, UniProt P35968)", "T1 construct": "poly-His6 (N); made in house; host or cells: SF-9 insect cells (baculovirus, pVL1393)", "T1 sequence (P35968 789-1354)": "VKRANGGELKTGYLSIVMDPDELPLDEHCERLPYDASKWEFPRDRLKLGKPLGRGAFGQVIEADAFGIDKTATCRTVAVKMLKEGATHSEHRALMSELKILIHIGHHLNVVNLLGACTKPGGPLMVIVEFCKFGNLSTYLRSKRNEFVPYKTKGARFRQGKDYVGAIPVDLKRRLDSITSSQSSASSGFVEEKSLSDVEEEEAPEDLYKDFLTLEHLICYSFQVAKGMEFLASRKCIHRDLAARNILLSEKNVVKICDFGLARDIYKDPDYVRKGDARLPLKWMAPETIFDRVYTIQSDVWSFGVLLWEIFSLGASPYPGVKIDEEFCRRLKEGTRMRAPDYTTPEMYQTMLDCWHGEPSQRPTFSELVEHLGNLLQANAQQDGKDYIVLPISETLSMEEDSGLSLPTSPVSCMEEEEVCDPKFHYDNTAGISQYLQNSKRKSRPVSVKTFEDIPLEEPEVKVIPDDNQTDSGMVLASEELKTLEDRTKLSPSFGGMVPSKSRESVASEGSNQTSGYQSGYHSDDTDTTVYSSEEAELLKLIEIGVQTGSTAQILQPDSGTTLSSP", "assay": "KDR in vitro ELISA", "details": "ELISA assay, ATP 5µM", "text": "The coding sequence for the KDR intra-cellular domain (aa789-1354) was generated through PCR using cDNAs isolated from HUVEC cells. A poly-His6 sequence was introduced at the N-terminus of this protein as well. This fragment was cloned into transfection vector pVL1393 at the Xba 1 and Not 1 site. Recombinant baculovirus (BV) was generated through co-transfection using the BaculoGold Transfection reagent (PharMingen). Recombinant BV was plaque purified and verified through Western analysis. For protein production, SF-9 cells were grown in SF-900-II medium at 2 x 10^6/ml, and were infected at 0.5 plaque forming units per cell (MOI). Cells were harvested at 48 hours post infection.\nSF-9 cells expressing (His)6KDR(aa789-1354) were lysed by adding 50 ml of Triton X-100 lysis buffer (20 mM Tris, pH 8.0, 137 mM NaCl, 10% glycerol, 1% Triton X-100, 1mM PMSF, 10µg/ml aprotinin, 1 µg/ml leupeptin) to the cell pellet from 1L of cell culture. The lysate was centrifuged at 19,000 rpm in a Sorval SS-34 rotor for 30 min at 4°C. The cell lysate was applied to a 5 ml NiCl2 chelating sepharose column, equilibrated with 50 mM HEPES, pH7.5, 0.3 M NaCl. KDR was eluted using the same buffer containing 0.25 M imidazole. Column fractions were analyzed using SDS-PAGE and an ELISA assay (below) which measures kinase activity. […]"}, "Lck": {"target": "Lck (Homo sapiens, UniProt P06239)", "sequence (P06239 whole entry, species assumed, the tested form may be a part)": "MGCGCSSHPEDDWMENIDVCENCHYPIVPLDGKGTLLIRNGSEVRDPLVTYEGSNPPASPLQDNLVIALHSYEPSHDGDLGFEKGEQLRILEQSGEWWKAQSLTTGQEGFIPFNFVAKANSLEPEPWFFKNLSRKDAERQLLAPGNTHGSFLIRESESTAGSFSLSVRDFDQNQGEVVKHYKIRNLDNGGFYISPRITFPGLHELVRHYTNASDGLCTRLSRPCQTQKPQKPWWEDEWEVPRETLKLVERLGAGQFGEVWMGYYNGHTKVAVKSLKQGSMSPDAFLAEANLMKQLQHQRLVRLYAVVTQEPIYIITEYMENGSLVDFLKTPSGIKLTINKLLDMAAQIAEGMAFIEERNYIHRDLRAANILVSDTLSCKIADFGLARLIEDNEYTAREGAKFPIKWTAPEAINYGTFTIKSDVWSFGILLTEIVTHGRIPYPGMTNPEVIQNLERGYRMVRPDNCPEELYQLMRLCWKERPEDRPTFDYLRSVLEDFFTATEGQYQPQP", "assay": "ELISA tyrosine kinase assay, Lck", "method": "Lck or truncated forms of Lck may be commercially obtained ( e.g. from Upstate Biotechnology Inc. (Saranac Lake, N.Y) and Santa Cruz Biotechnology Inc. (Santa Cruz, Ca.)) or purified from known natural or recombinant sources using conventional methods.\n• 1. Plate Preparation: Dilute PGT stock (50mg/ml, frozen) in PBS to a 250µg/ml. Add 125µl per well of Coming modified flat bottom high affinity ELISA plates (Corning #25805-96). Add 125µl PBS to blank wells. Cover with sealing tape and incubate overnight 37°C. Wash 1x with 250µl washing buffer and dry for about 2hrs in 37°C dry incubator. Store coated plates in sealed bag at 4°C until used. • 2. Tyrosine Kinase Reaction: • Prepare inhibitor solutions at a 4x concentration in 20% DMSO in water. • Prepare reaction buffer • Prepare enzyme solution so that desired units are in 50µl, e.g. for KDR make to 1 ng/µl for a total of 50ng per well in the reactions. Store on ice. • Make 4x ATP solution to 20µM from 100mM stock in water. Store on ice • Add 50µl of the enzyme solution per well • Add 25µl 4x inhibitor • Add 25µl 4x ATP for inhibitor assay • Incubate for 10 minutes at room temperature • Stop reaction by adding 50µl 0.05N HCl per well • Wash plate **Final Concentrations for Reaction: • ATP: 5µM • 5% DMSO • 3. […] Shake on plate reader. • Read OD immediately at 450nm […]"}, "human Tie-2": {"target": "T2, human Tie-2 (Homo sapiens, UniProt Q02763)", "T2 construct": "human Tie-2 intra-cellular domain (aa775-1124) was generated through PCR; made in house; host or cells: SF-9 insect cells (baculovirus)", "T2 sequence (Q02763 775-1124)": "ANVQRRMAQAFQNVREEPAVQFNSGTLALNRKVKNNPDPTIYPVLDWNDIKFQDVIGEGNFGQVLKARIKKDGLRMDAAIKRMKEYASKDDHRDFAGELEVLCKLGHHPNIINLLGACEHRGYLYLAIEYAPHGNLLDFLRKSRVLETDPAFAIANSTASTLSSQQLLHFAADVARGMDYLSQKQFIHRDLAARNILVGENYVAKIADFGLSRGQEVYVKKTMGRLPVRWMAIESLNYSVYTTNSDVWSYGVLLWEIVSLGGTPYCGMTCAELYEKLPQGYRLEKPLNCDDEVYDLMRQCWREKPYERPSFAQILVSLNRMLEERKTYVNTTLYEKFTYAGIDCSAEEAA", "assay": "ELISA tyrosine kinase assay, TIE2", "text": "The coding sequence for the human Tie-2 intra-cellular domain (aa775-1124) was generated through PCR using cDNAs isolated from human placenta as a template. A poly-His6 sequence was introduced at the N-terminus and this construct was cloned into transfection vector […] at the Xba 1 and Not 1 site. Recombinant BV was generated through co-transfection using the BaculoGold Transfection reagent (PharMingen). Recombinant BV was plaque purified and verified through Western analysis. For protein production, SF-9 insect cells were grown in SF-900-II medium at 2 x 10^6/ml, and were infected at MOI of 0.5. Purification of the His-tagged kinase used in screening was analogous to that described for KDR.\nThe disclosed protocol can be adapted for determining activity with respect to a specific RTK. For example, preferred protocols for conducting the ELISA experiments for KDR is provided below. Adaptation of these protocols for determining a compounds activity for other members of the RTK family, as well as non-receptor tyrosine kinases, are well within the abilities of those in the art.\n• 1. Plate Preparation: Dilute PGT stock (50mg/ml, frozen) in PBS to a 250µg/ml. Add 125µl per well of Coming modified flat bottom high affinity ELISA plates (Corning #25805-96). Add 125µl PBS to blank wells. Cover with sealing tape and incubate overnight 37°C. […] Shake on plate reader. • Read OD immediately at 450nm"}, "zapfl": {"target": "T3, zapfl (Homo sapiens, UniProt P43403)", "T3 construct": "the region encoding the entirety of ZAP70 (amino acids 1-619); made in house; host or cells: SF-9 insect cells (baculovirus, pVL1393)", "T3 sequence (P43403 1-619)": "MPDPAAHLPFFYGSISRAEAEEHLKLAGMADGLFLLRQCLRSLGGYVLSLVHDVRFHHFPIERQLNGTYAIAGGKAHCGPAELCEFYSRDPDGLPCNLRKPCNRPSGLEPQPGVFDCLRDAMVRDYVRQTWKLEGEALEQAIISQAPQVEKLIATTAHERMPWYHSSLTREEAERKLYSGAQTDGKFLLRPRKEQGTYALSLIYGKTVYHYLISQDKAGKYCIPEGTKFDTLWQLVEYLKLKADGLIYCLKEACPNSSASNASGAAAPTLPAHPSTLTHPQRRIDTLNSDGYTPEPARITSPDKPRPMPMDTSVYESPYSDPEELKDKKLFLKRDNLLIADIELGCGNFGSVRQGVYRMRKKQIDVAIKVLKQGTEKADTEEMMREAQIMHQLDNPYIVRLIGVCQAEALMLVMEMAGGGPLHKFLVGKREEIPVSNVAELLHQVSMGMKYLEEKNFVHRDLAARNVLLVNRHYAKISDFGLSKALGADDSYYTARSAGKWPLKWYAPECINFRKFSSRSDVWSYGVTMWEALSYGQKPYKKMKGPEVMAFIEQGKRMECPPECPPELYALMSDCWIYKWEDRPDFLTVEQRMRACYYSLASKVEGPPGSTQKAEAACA", "assay": "ELISA tyrosine kinase assay, zapfl (ZAP70)", "text": "The baculoviral expression vector used was pVL1393. (Pharmingen, Los Angeles, Ca.) The nucleotide sequence encoding amino acids M(H)6 LVPR9S was placed 5' to the region encoding the entirety of ZAP70 (amino acids 1-619). The nucleotide sequence encoding the ZAP70 coding region was generated through PCR using cDNA libraries isolated from Jurkat immortalized T-cells. The histidine residues enabled affinity purification of the protein (vide infra). The LVPR9S bridge constitutes a recognition sequence for proteolytic cleavage by thrombin, enabling removal of the affinity tag from the enzyme. SF-9 insect cells were infected at a multiplicity of infection of 0.5 and harvested 48 hours post infection.\nSF-9 cells were lysed in a buffer consisting of 20 mM Tris, pH 8.0, 137 mM NaCl, 10% glycerol, 1% Triton X-100, 1 mM PMSF, 1 µg/ml leupeptin, 10 µg/ml aprotinin and I mM sodium orthovanadate. The soluble lysate was applied to a chelating sepharose HiTrap column (Pharmacia) equilibrated in 50 mM HEPES, pH 7.5, 0.3 M NaCl. Fusion protein was eluted with 250 mM imidazole. The enzyme was stored in buffer containing 50 mM HEPES, pH 7.5, 50 mM NaCl and 5 mM DTT.\nThe disclosed protocol can be adapted for determining activity with respect to a specific RTK. […]\n• 1. […] Shake on plate reader. • Read OD immediately at 450nm"}}, "note": "pIC50: −log10 of the molar value.", "data": [{"smiles": "c1ccc2c(c1)SCc1c(-c3ccncc3)n[nH]c1-2", "note": "[Compound III]", "values": [{"measurement": "pIC50", "setting": "KDR tyrosine kinase", "result": 4.87}, {"measurement": "pIC50", "setting": "Lck", "result": "< 4.52"}, {"measurement": "pIC50", "setting": "human Tie-2", "result": "< 4.52"}, {"measurement": "pIC50", "setting": "zapfl", "result": 4.52}]}]}
